{"source": "paper PMC10541198", "about": "“Specific quinone reductase 2 inhibitors reduce metabolic burden and reverse Alzheimer’s disease phenotype in mice” (The Journal of Clinical Investigation, 2023)", "key": {"4-HNE": {"test_system": "4-HNE", "assay": "IHC of 4-HNE in 5xFAD brain sections", "assay_type": "in vivo, mouse", "parameters": "4-HNE upper quartile / 4-HNE lower quartile: unit not given here", "conditions": "for 4-HNE distribution (F test) / 4-HNE lower quartile / 4-HNE normalized volume (individual mice) / 4-HNE upper quartile: CA1, 5xFAD 1 month; for Figure 9A, IHC signal / Sup. Fig. 6-1A, IHC signal: individual animals; for 4-HNE vs vehicle: cortex, 5xFAD 1 month", "text": "(§1) Following the behavioral experiments, we assessed brain pathologies associated with AD present in the 5xFAD mice ([37]). Therefore, 5 days following the last behavioral experiment, and 1 month after the start of YB-537 consumption, mice were sacrificed, and coronal brain sections were used for IHC. Since the CA1 region of the hippocampus is affected during AD pathogenesis ([37]), and this brain region is involved in the behavioral paradigms used here, we acquired images of CA1. This was done with an Olympus IX83 confocal microscope using the same settings, antibodies, and exposures in all mice. Images were analyzed using Imaris (Bitplane; see methods). For each mouse, 3 coronal sections were used per antibody. In each section, the same region of CA1 was acquired, using the same image frame size and resolution, at all possible depths of the section — using a Z-stack of the whole section — to allow measurement of the fluorescent antibody marker volume, which was normalized to the brain volume from which it was taken. First, we measured oxidative stress, as indicated by 4-HNE ([38]) (Abcam, ab48506).\n(§2) Perfused and fixed brain slices were blocked with 10% normal donkey serum (DNS) and 0.2% triton (Sigma-Aldrich) in PBS. Antibodies, including 4-HNE (AbCam, ab48506), Iba1 (AbCam, ab5076), AT-8 (Thermo, MN1020), Amyloid β (AbCam, ab201060), diluted in PBS with 10% DNS, were incubated at 4°C overnight. Secondary antibodies including donkey-anti-goat Alexa Fluor 568 (AbCam, ab175704), donkey-anti-mouse Cy 5 (Jackson Immuno Research, 715-175-151), and donkey-anti-rabbit DyLight 488 (AbCam, ab98488) all diluted 1:500 in PBS with 1% BSA, were applied to the slices at RT for 2 hours the next day. Slices were mounted onto glass slides using DAPI containing Vectashield (H-1200). Images were taken using a confocal microscope (Olympus IX83). Three slices were used per mouse per antibody. Tiling images of the dorsal CA1 and cortex (Bregma: –1.58mm to –2.30mm) were taken using ×20 objective, acquiring a Z-stack of the whole section. Analysis of the images was done blind by an experimenter unaware of the experimental conditions or details, using Imaris (Bitplane) software. A surface reconstruction module was used to extract the data as volumes of the used markers (4-HNE, phospho-tau, amyloid β, GFAP, and Iba1). Marker volume and intensity were normalized to the corresponding brain volume. The normalized value was averaged for each triplicate and presented here. […]\n(§3) Brains were then briefly removed and placed in chilled, 4% PFA for 48 h, f oll owe d by immersion in 30% sucrose in 0.1 M PBS for a furt her 48 h. Bra i ns wer e t h e n stored at -80°C, until t he y were sliced into 40µm coronal sections usinga Lei ca CM 1950cryostat. Sli ces were then washed x3 in PBS and bl oc ke d for 1 h at RT using 10% normal donkey serum (DNS) and 0.2% triton (Sigma-Aldrich) in PBS. Antibodies, including 4- HNE (1:500, AbCam, ab48506), Iba1 (1:2,000, AbCam, ab5076), GFAP (Abcam, ab53554), phospho- tau (1:1,000, Thermo, MN1020) and amyloid β (1:1,000, AbCam, ab201060) diluted in PBS with 10% DNS were incubated at 4°C overnight. The next day, the slices were washed x3 times in PBS, and secondary antibodies including donkey anti goat A l e x a Fluor 568 (AbCam, ab175704), donkey anti-mouse Cy 5 (Jackson Immuno Research, 715- 175- 151) and donkey anti-rabbit DyLight 488 (AbCam, ab98488) all diluted 1:500 in PBS with 1% BSA, were applied to the slices at RT for 2 h. Following the incubation, the slices were washed x3 times in PBS, mounted onto gl ass slides, were uniformly covered in DAPI containing Vectashield (H-1200) and coverslips were a dde d. […]"}, "Amyloid β": {"test_system": "Amyloid β", "assay": "IHC of amyloid β in 5xFAD brain sections", "assay_type": "in vivo, mouse", "conditions": "for Amyloid β normalized volume (individual mice): CA1, 5xFAD 1 month; for Figure 9B, IHC signal / Sup. Fig. 6-1B, IHC signal: individual animals; for Amyloid β vs vehicle: cortex, 5xFAD 1 month", "text": "as §1, §2, §3"}}, "note": "Where “and” joins values, the source holds several entries; their conditions need not be identical. Equal values may be shown once."}
{"compound": "Cc1ccc(-c2cn3cccc(C)c3n2)cc1S(=O)(=O)N1CCNCC1", "note": "[YB-537]", "values": [{"measurement": "4-HNE distribution (F test)", "setting": "4-HNE; Females", "value": "significantly changes distribution"}, {"measurement": "4-HNE lower quartile", "setting": "4-HNE; Females", "value": 0.0409}, {"measurement": "4-HNE normalized volume (individual mice)", "setting": "4-HNE; Females", "value": "0.0514 and 0.0389 and 0.0542 and 0.0413 and 0.0409 and 0.0433 and 0.0449"}, {"measurement": "4-HNE upper quartile", "setting": "4-HNE; Females", "value": 0.0514}, {"measurement": "4-HNE normalized volume (individual mice)", "setting": "4-HNE; Males", "value": "0.0457 and 0.0892 and 0.0543 and 0.0490 and 0.0489 and 0.0313 and 0.0587 and 0.0539 and 0.0508"}, {"measurement": "4-HNE normalized volume (individual mice)", "setting": "4-HNE; Males + Females", "value": "0.0514 and 0.0389 and 0.0542 and 0.0313 and 0.0587 and 0.0539 and 0.0508 and 0.0457 and 0.0892 and 0.0543 and 0.0490 and 0.0489 and 0.0413 and 0.0409 and 0.0433 and 0.0449"}, {"measurement": "4-HNE lower quartile", "setting": "4-HNE; both sexes", "value": 0.0418}, {"measurement": "4-HNE upper quartile", "setting": "4-HNE; both sexes", "value": 0.0541}, {"measurement": "4-HNE distribution (F test)", "setting": "4-HNE; total population", "value": "tends to alter distribution"}, {"measurement": "Figure 9A, IHC signal", "setting": "4-HNE; Cortex", "value": "0.0148 and 0.0125 and 0.0103 and 0.0159 and 0.0128 and 0.0161 and 0.0104 and 0.0145 and 0.0118"}, {"measurement": "Sup. Fig. 6-1A, IHC signal", "setting": "4-HNE; Females", "value": "0.0214 and 0.0277 and 0.0236 and 0.0333 and 0.0429 and 0.0318 and 0.0155"}, {"measurement": "Figure 9A, IHC signal", "setting": "4-HNE; Hippocampus", "value": "0.0222 and 0.0139 and 0.0101 and 0.0187 and 0.0170 and 0.0160 and 0.0186 and 0.0121 and 0.0197"}, {"measurement": "Sup. Fig. 6-1A, IHC signal", "setting": "4-HNE; Males + Females", "value": "0.0231 and 0.0112 and 0.0400 and 0.0392 and 0.0271 and 0.0198 and 0.0429 and 0.0318 and 0.0155 and 0.0214 and 0.0277 and 0.0236 and 0.0333 and 0.0301 and 0.0174 and 0.0275"}, {"measurement": "Sup. Fig. 6-1A, IHC signal", "setting": "4-HNE; Males", "value": "0.0231 and 0.0112 and 0.0400 and 0.0392 and 0.0271 and 0.0198 and 0.0301 and 0.0174 and 0.0275"}, {"measurement": "4-HNE vs vehicle", "setting": "4-HNE; females", "value": "not significantly altered"}, {"measurement": "4-HNE vs vehicle", "setting": "4-HNE; males", "value": "not significantly altered"}, {"measurement": "4-HNE vs vehicle", "setting": "4-HNE; total population", "value": "not significantly altered"}, {"measurement": "Amyloid β normalized volume (individual mice)", "setting": "Amyloid β; Females", "value": "0.0438 and 0.0503 and 0.0630 and 0.0517 and 0.0415 and 0.0377 and 0.0224"}, {"measurement": "Amyloid β normalized volume (individual mice)", "setting": "Amyloid β; Males", "value": "0.0456 and 0.0411 and 0.0568 and 0.0482 and 0.0215 and 0.0315 and 0.0453 and 0.0211 and 0.0327"}, {"measurement": "Amyloid β normalized volume (individual mice)", "setting": "Amyloid β; Males + Females", "value": "0.0438 and 0.0503 and 0.0630 and 0.0315 and 0.0453 and 0.0211 and 0.0327 and 0.0456 and 0.0411 and 0.0568 and 0.0482 and 0.0215 and 0.0517 and 0.0415 and 0.0377 and 0.0224"}, {"measurement": "Figure 9B, IHC signal", "setting": "Amyloid β; Cortex", "value": "0.0014 and 0.0009 and 0.0012 and 0.0011 and 0.0040 and 0.0050 and 0.0062 and 0.0018 and 0.0015"}, {"measurement": "Sup. Fig. 6-1B, IHC signal", "setting": "Amyloid β; Females", "value": "0.0046 and 0.0222 and 0.0056 and 0.0307 and 0.0209 and 0.0044 and 0.0060"}, {"measurement": "Figure 9B, IHC signal", "setting": "Amyloid β; Hippocampus", "value": "0.0022 and 0.0020 and 0.0026 and 0.0016 and 0.0029 and 0.0072 and 0.0052 and 0.0013"}, {"measurement": "Sup. Fig. 6-1B, IHC signal", "setting": "Amyloid β; Males", "value": "0.0033 and 0.0053 and 0.0092 and 0.0140 and 0.0194 and 0.0050 and 0.0040 and 0.0079 and 0.0183"}, {"measurement": "Amyloid β vs vehicle", "setting": "Amyloid β; females", "value": "unchanged"}, {"measurement": "Amyloid β vs vehicle", "setting": "Amyloid β; males", "value": "insignificantly reduced"}, {"measurement": "Amyloid β vs vehicle", "setting": "Amyloid β; total population", "value": "not significantly reduced"}]}
